Source: PubChem BioAssay AID1259407 (Chemical Carcinogenesis Research Information System (CCRIS), 2018)
Active and inactive are the calls of the source. The rule behind the calls is not given here.

System: CCRIS mutagenicity, Ames/micronucleus/aberration tests
Test: CCRIS mutagenicity studies

In the case of `c1ccccc1`, the mutagenic call (Test System: AMES SALMONELLA TYPHIMURIUM, Strain/Indicator: TA100, Metabolic Activation: RAT, LIVER, S-9, PHENOBARBITAL, Method: PREINCUBATION) is reported as “inactive; negative”, the mutagenic call (Test System: AMES SALMONELLA TYPHIMURIUM, Strain/Indicator: TA100, Metabolic Activation: RAT, LIVER, S-9, PHENOBARBITAL, Method: STANDARD PLATE) is reported as “inactive; negative” and the mutagenic call (Test System: AMES SALMONELLA TYPHIMURIUM, Strain/Indicator: TA100, Metabolic Activation: RAT, LIVER, S-9, PYRAZOLE, Method: STANDARD PLATE) is reported as “inactive; negative”. For the same compound, the mutagenic call (Test System: AMES SALMONELLA TYPHIMURIUM, Strain/Indicator: TA100, Metabolic Activation: S-9, Method: STANDARD PLATE) was “inactive; negative”, the mutagenic call (Test System: AMES SALMONELLA TYPHIMURIUM, Strain/Indicator: TA102, Metabolic Activation: NONE, Method: STANDARD PLATE) was “inactive; negative” and the mutagenic call (Test System: AMES SALMONELLA TYPHIMURIUM, Strain/Indicator: TA102, Metabolic Activation: RAT, LIVER, S-9, ETHANOL, Method: STANDARD PLATE) was “inactive; negative”. The mutagenic call (Test System: AMES SALMONELLA TYPHIMURIUM, Strain/Indicator: TA102, Metabolic Activation: RAT, LIVER, S-9, PYRAZOLE, Method: STANDARD PLATE) was “inactive; negative”, the mutagenic call (Test System: AMES SALMONELLA TYPHIMURIUM, Strain/Indicator: TA102, Metabolic Activation: S-9, Method: STANDARD PLATE) was “inactive; negative” and the mutagenic call (Test System: AMES SALMONELLA TYPHIMURIUM, Strain/Indicator: TA104, Metabolic Activation: RAT, LIVER, S-9, AROCLOR 1254, Method: DESICCATOR) was “inactive; negative”. For the same compound, the mutagenic call (Test System: AMES SALMONELLA TYPHIMURIUM, Strain/Indicator: TA1535, Metabolic Activation: HAMSTER LIVER S-9, AROCLOR 1254 (10 OR 30%), Method: PREINCUBATION) was “inactive; negative”, the mutagenic call (Test System: AMES SALMONELLA TYPHIMURIUM, Strain/Indicator: TA1535, Metabolic Activation: NONE, Method: DESICCATOR) was “inactive; negative” and the mutagenic call (Test System: AMES SALMONELLA TYPHIMURIUM, Strain/Indicator: TA1535, Metabolic Activation: NONE, Method: PREINCUBATION) was “inactive; negative”. The mutagenic call (Test System: AMES SALMONELLA TYPHIMURIUM, Strain/Indicator: TA1535, Metabolic Activation: NONE, Method: STANDARD PLATE) was “inactive; negative”, the mutagenic call (Test System: AMES SALMONELLA TYPHIMURIUM, Strain/Indicator: TA1535, Metabolic Activation: RAT LIVER S-9, AROCLOR 1254 (10 OR 30%), Method: PREINCUBATION) was “inactive; negative” and the mutagenic call (Test System: AMES SALMONELLA TYPHIMURIUM, Strain/Indicator: TA1535, Metabolic Activation: RAT, LIVER, S-9, AROCLOR 1254, Method: DESICCATOR) was “active; positive”. For the same compound, the mutagenic call (Test System: AMES SALMONELLA TYPHIMURIUM, Strain/Indicator: TA1535, Metabolic Activation: RAT, LIVER, S-9, AROCLOR 1254, Method: STANDARD PLATE) was “inactive; negative”, the mutagenic call (Test System: AMES SALMONELLA TYPHIMURIUM, Strain/Indicator: TA1535, Metabolic Activation: RAT, LIVER, S-9, PYRAZOLE, Method: STANDARD PLATE) was “inactive; negative” and the mutagenic call (Test System: AMES SALMONELLA TYPHIMURIUM, Strain/Indicator: TA1537, Metabolic Activation: NONE, Method: STANDARD PLATE) was “inactive; negative”. The mutagenic call (Test System: AMES SALMONELLA TYPHIMURIUM, Strain/Indicator: TA1537, Metabolic Activation: RAT, LIVER, S-9, AROCLOR 1254, Method: STANDARD PLATE) was “inactive; negative”, the mutagenic call (Test System: AMES SALMONELLA TYPHIMURIUM, Strain/Indicator: TA1537, Metabolic Activation: RAT, LIVER, S-9, PYRAZOLE, Method: STANDARD PLATE) was “inactive; negative” and the mutagenic call (Test System: AMES SALMONELLA TYPHIMURIUM, Strain/Indicator: TA1538, Metabolic Activation: NONE, Method: STANDARD PLATE) was “inactive; negative”. For the same compound, the mutagenic call (Test System: AMES SALMONELLA TYPHIMURIUM, Strain/Indicator: TA1538, Metabolic Activation: RAT, LIVER, S-9, AROCLOR 1254, Method: STANDARD PLATE) was “inactive; negative”, the mutagenic call (Test System: AMES SALMONELLA TYPHIMURIUM, Strain/Indicator: TM677/8-AZAGUANINE, Metabolic Activation: NONE, Method: PREINCUBATION) was “inactive; negative” and the mutagenic call (Test System: AMES SALMONELLA TYPHIMURIUM, Strain/Indicator: TM677/8-AZAGUANINE, Metabolic Activation: RAT, LIVER, S-9, PHENOBARBITAL, Method: PREINCUBATION) was “inactive; negative”. The mutagenic call (Test System: AMES SALMONELLA TYPHIMURIUM, Strain/Indicator: TM677, Metabolic Activation: NONE, Method: STANDARD PLATE) was “inactive; negative”, the mutagenic call (Test System: AMES SALMONELLA TYPHIMURIUM, Strain/Indicator: UTH8413, Metabolic Activation: NONE, Method: STANDARD PLATE) was “inactive; negative” and the mutagenic call (Test System: AMES SALMONELLA TYPHIMURIUM, Strain/Indicator: UTH8413, Metabolic Activation: RAT, LIVER, S-9, AROCLOR, Method: STANDARD PLATE) was “inactive; negative”. The mutagenic call (Test System: AMES SALMONELLA TYPHIMURIUM, Strain/Indicator: UTH8414, Metabolic Activation: NONE, Method: STANDARD PLATE) was “inactive; negative”, the mutagenic call (Test System: AMES SALMONELLA TYPHIMURIUM, Strain/Indicator: UTH8414, Metabolic Activation: RAT, LIVER, S-9, AROCLOR, Method: STANDARD PLATE) was “inactive; negative” and the mutagenic call (Test System: CHINESE HAMSTER OVARY, Strain/Indicator: CHO-K1-BH4 (HGPRT), Metabolic Activation: NONE, Method: SUSPENSION/PLATE) was “inactive; negative”. The mutagenic call (Test System: CHINESE HAMSTER OVARY, Strain/Indicator: CHO-K1-BH4 (HGPRT), Metabolic Activation: RAT, LIVER, S-9, AROCLOR, Method: SUSPENSION/PLATE) was “inactive; negative”, the mutagenic call (Test System: CHINESE HAMSTER OVARY, Strain/Indicator: CHO/6-THIOGUANINE, Metabolic Activation: HAMSTER EMBRYO CELL-MEDIATED) was “inactive; negative” and the mutagenic call (Test System: CHINESE HAMSTER OVARY, Strain/Indicator: CHO/6-THIOGUANINE, Metabolic Activation: NONE) was “inactive; negative”. The mutagenic call (Test System: CHINESE HAMSTER OVARY, Strain/Indicator: CHO/OUABAIN, Metabolic Activation: HAMSTER EMBRYO CELL-MEDIATED) was “inactive; negative”, the mutagenic call (Test System: CHINESE HAMSTER OVARY, Strain/Indicator: CHO/OUABAIN, Metabolic Activation: NONE) was “inactive; negative” and the mutagenic call (Test System: CHINESE HAMSTER V-79, Strain/Indicator: V-79 (HGPRT)/6-THIOGUANINE, Metabolic Activation: NONE) was “inactive; negative”. For the same compound, the mutagenic call (Test System: CHINESE HAMSTER V-79, Strain/Indicator: V-79 (HGPRT)/6-THIOGUANINE, Metabolic Activation: RAT, LIVER, S-9, PHENOBARBITAL AND BETA-NAPHTHOFLAVONE) was “inactive; negative”, the mutagenic call (Test System: CHINESE HAMSTER V-79, Strain/Indicator: V-79/6-THIOGUANINE, Metabolic Activation: RAT, LIVER, S-9, PHENOBARBITAL AND 5,6-BENZOFLAVONE, Method: REPLATING) was “inactive; negative” and the mutagenic call (Test System: MOUSE LYMPHOMA, Strain/Indicator: L5178Y (TK+/+)/OUABAIN, Metabolic Activation: RAT LIVER S-9, AROCLOR 1254, Method: SUSPENSION/PLATE) was “active; positive”. The mutagenic call (Test System: MOUSE LYMPHOMA, Strain/Indicator: L5178Y (TK+/TK-), Metabolic Activation: NONE, Method: MICROWELL) was “active; positive”, the mutagenic call (Test System: MOUSE LYMPHOMA, Strain/Indicator: L5178Y (TK+/TK-), Metabolic Activation: NONE, Method: SUSPENSION/PLATE) was “inactive; negative” and the mutagenic call (Test System: MOUSE LYMPHOMA, Strain/Indicator: L5178Y (TK+/TK-), Metabolic Activation: RAT, LIVER, S-9, AROCLOR 1254, Method: SUSPENSION/PLATE) was “active; positive”. For the same compound, the mutagenic call (Test System: MOUSE LYMPHOMA, Strain/Indicator: L5178Y (TK+/TK-), Metabolic Activation: RAT, LIVER, S-9, Method: SUSPENSION/PLATE) was “inactive; negative”, the mutagenic call (Test System: MOUSE LYMPHOMA, Strain/Indicator: L5178Y (TK+/TK-), Metabolic Activation: S-9, Method: MICROWELL) was “active; positive” and the mutagenic call (Test System: MOUSE LYMPHOMA, Strain/Indicator: L5178Y(TK+/-)/TRIFLUOROTHYMIDINE, Metabolic Activation: RAT LIVER s-9, AROCLOR 1254, Method: SUSPENSION/PLATE) was “active; positive”. For the same compound, the mutagenic call (Test System: UDS RAT HEPATOCYTES, Strain/Indicator: THY INCORP, Metabolic Activation: NONE, Method: LIQUID SCINTILLATION COUNTING) was “active; positive” and the mutagenic call (Test System: UDS SHE CELLS, Strain/Indicator: THY INCORP, Metabolic Activation: NONE, Method: LIQUID SCINTILLATION COUNTING) was “inactive; negative”.
